According to publication PMC8571282 (Nature Communications, 2021):
Several values for one entry are separate records, joined by “and”; a condition that tells them apart may be missing. Identical values can stand only once. Like-named read-outs stand apart in the source and are kept apart here.

Experiments:
[1] = dogs, reported; cited from earlier work
[2] = in vivo; conditions: iv, 20 mg/kg
[3] = cited from earlier work
[4] = Cytotoxicity assay (PrestoBlue), “F2” HAE; conditions: human; for viability at 72 h, 0.046 µM: “F2” primary human airway epithelial (HAE) cells; for CC50 at 72 h: CC50, “F2” HAE
[5] = in vitro; conditions: hamster, % cell viability, 72 h
[6] = test system: SARS-CoV-2 WA1/2020; type: in vivo, ferret (Mustela putorius furo); conditions: for Transform of Nasal lavage titer, Mean 2 (treated group) / Transform of Nasal lavage titer, Mean Diff. (Vehicle vs. treated): Fig 3b; for Transform of Nasal lavage titer, Mean 2 (treated group) / Transform of Nasal lavage titer, Mean Diff. (Vehicle vs. treated) / Transform of Nasal Turbinate titer, Mean 2 (treated group) / Transform of Nasal Turbinate titer, Mean Diff. (Vehicle vs. treated): b.i.d.; for Transform of Nasal Turbinate titer, Mean 2 (treated group) / Transform of Nasal Turbinate titer, Mean Diff. (Vehicle vs. treated): Fig 3c; for Transform of Nasal Lavage RNA copies, Mean 2 (treated group) / Transform of Nasal Lavage RNA copies, Mean Diff. (Vehicle vs. treated): Fig 3f
[7] = in vitro; conditions: human, CC50, “M2” HAE
[8] = in vitro; conditions: African green monkey, % cell viability, 72 h
[9] = test system: “M2” primary HAE cells; assay: Cytotoxicity assay (PrestoBlue), “M2” HAE; conditions: 72 h; for % cell viability: M2 HAE
[10] = test system: BHK-21 cells; assay: Cytotoxicity assay (PrestoBlue), BHK-21; conditions: 72 h
[11] = test system: “DF2” primary HAE cells (diseased, asthma); conditions: 72 h
[12] = GS-441524 and metabolite concentrations in ferret lung tissue; conditions: single 30 mg/kg oral GS-621763, 24 h
[13] = female, % cell viability, F2 HAE

N#C[C@@]1(c2ccc3c(N)ncnn23)O[C@H](CO)[C@@H](O)[C@H]1O [GS-441524]
oral availability [1]: 89% | AUC(0-t) [2]: 81.1 µM·h | Cmax [2]: 54.2 µM | clearance [2]: 14.3 mL/min/kg | half-life [2]: 3.4 h | oral bioavailability ([3]; SARS-CoV2 mouse model report, ref Li et al (J. Med Chem. 2021)): 5% | oral availability ([3]; mice, ref Wei et al. (Bioorg. Med Chem Lett 2021, 116364)): 16% | viability at 72 h, 0.046 µM [4, 13]: 92% | viability at 72 h, 100 µM ([4]; % cell viability, F2 HAE): 86% | CC50 at 72 h [4]: > 100 µM

CC(C)C(=O)OCC1OC(C#N)(c2ccc3c(N)ncnn23)C(OC(=O)C(C)C)C1OC(=O)C(C)C (stereo not shown) [GS-621763]
viability at 72 h, 0.046 µM ([5]; BHK-21, 0.046 µM): 89% | viability at 72 h, 1.235 µM ([5]; BHK-21, 1.235 µM): 89% | viability at 72 h, 33.333 µM ([5]; BHK-21, 33.333 µM): 103% | Transform of Nasal lavage titer, Mean 2 (treated group) ([6]; Day 0, 3 mg/kg): 0.699 | Transform of Nasal lavage titer, Mean Diff. (Vehicle vs. treated) ([6]; Day 0, 3 mg/kg): 0 | Transform of Nasal lavage titer, Mean 2 (treated group) ([6]; Day 0, 10 mg/kg): 0.699 | Transform of Nasal lavage titer, Mean Diff. (Vehicle vs. treated) ([6]; Day 0, 10 mg/kg): 0 | Transform of Nasal lavage titer, Mean 2 (treated group) ([6]; Day 0.5, 3 mg/kg): 2.775 | Transform of Nasal lavage titer, Mean Diff. (Vehicle vs. treated) ([6]; Day 0.5, 3 mg/kg): -0.18 | Transform of Nasal lavage titer, Mean 2 (treated group) ([6]; Day 0.5, 10 mg/kg): 2.413 | Transform of Nasal lavage titer, Mean Diff. (Vehicle vs. treated) ([6]; Day 0.5, 10 mg/kg): 0.1817 | Transform of Nasal lavage titer, Mean 2 (treated group) ([6]; Day 1, 3 mg/kg): 2.834 | Transform of Nasal lavage titer, Mean Diff. (Vehicle vs. treated) ([6]; Day 1, 3 mg/kg): 0.8732 | Transform of Nasal lavage titer, Mean 2 (treated group) ([6]; Day 1, 10 mg/kg): 2.126 | Transform of Nasal lavage titer, Mean Diff. (Vehicle vs. treated) ([6]; Day 1, 10 mg/kg): 1.581 | Transform of Nasal lavage titer, Mean 2 (treated group) ([6]; Day 1.5, 3 mg/kg): 3.42 | Transform of Nasal lavage titer, Mean Diff. (Vehicle vs. treated) ([6]; Day 1.5, 3 mg/kg): 1.236 | Transform of Nasal lavage titer, Mean 2 (treated group) ([6]; Day 1.5, 10 mg/kg): 2.277 | Transform of Nasal lavage titer, Mean Diff. (Vehicle vs. treated) ([6]; Day 1.5, 10 mg/kg): 2.379 | Transform of Nasal lavage titer, Mean 2 (treated group) ([6]; Day 2, 3 mg/kg): 3.882 | Transform of Nasal lavage titer, Mean Diff. (Vehicle vs. treated) ([6]; Day 2, 3 mg/kg): 0.3882 | Transform of Nasal lavage titer, Mean 2 (treated group) ([6]; Day 2, 10 mg/kg): 1.369 | Transform of Nasal lavage titer, Mean Diff. (Vehicle vs. treated) ([6]; Day 2, 10 mg/kg): 2.901 | Transform of Nasal lavage titer, Mean 2 (treated group) ([6]; Day 2.5, 3 mg/kg): 3.714 | Transform of Nasal lavage titer, Mean Diff. (Vehicle vs. treated) ([6]; Day 2.5, 3 mg/kg): 0.4855 | Transform of Nasal lavage titer, Mean 2 (treated group) ([6]; Day 2.5, 10 mg/kg): 1.314 | Transform of Nasal lavage titer, Mean Diff. (Vehicle vs. treated) ([6]; Day 2.5, 10 mg/kg): 2.886 | Transform of Nasal lavage titer, Mean 2 (treated group) ([6]; Day 3, 3 mg/kg): 3.088 | Transform of Nasal lavage titer, Mean Diff. (Vehicle vs. treated) ([6]; Day 3, 3 mg/kg): 0.713 | Transform of Nasal lavage titer, Mean 2 (treated group) ([6]; Day 3, 10 mg/kg): 0.8495 | Transform of Nasal lavage titer, Mean Diff. (Vehicle vs. treated) ([6]; Day 3, 10 mg/kg): 2.952 | Transform of Nasal lavage titer, Mean 2 (treated group) ([6]; Day 3.5, 3 mg/kg): 3.452 | Transform of Nasal lavage titer, Mean Diff. (Vehicle vs. treated) ([6]; Day 3.5, 3 mg/kg): 0.4247 | Transform of Nasal lavage titer, Mean 2 (treated group) ([6]; Day 3.5, 10 mg/kg): 1.758 | Transform of Nasal lavage titer, Mean Diff. (Vehicle vs. treated) ([6]; Day 3.5, 10 mg/kg): 2.118 | Transform of Nasal lavage titer, Mean 2 (treated group) ([6]; Day 4, 3 mg/kg): 3.139 | Transform of Nasal lavage titer, Mean Diff. (Vehicle vs. treated) ([6]; Day 4, 3 mg/kg): 0.849 | Transform of Nasal lavage titer, Mean 2 (treated group) ([6]; Day 4, 10 mg/kg): 1 | Transform of Nasal lavage titer, Mean Diff. (Vehicle vs. treated) ([6]; Day 4, 10 mg/kg): 2.988 | Transform of Nasal Turbinate titer, Mean 2 (treated group) ([6]; 3 mg/kg): 4.557 | Transform of Nasal Turbinate titer, Mean Diff. (Vehicle vs. treated) ([6]; 3 mg/kg): 1.366 | Transform of Nasal Turbinate titer, Mean 2 (treated group) ([6]; 10 mg/kg): 3.042 | Transform of Nasal Turbinate titer, Mean Diff. (Vehicle vs. treated) ([6]; 10 mg/kg): 2.881 | Transform of Nasal Lavage RNA copies, Mean 2 (treated group) ([6]; Row 1 (time), 3mg/kg b.i.d.): 0 | Transform of Nasal Lavage RNA copies, Mean Diff. (Vehicle vs. treated) ([6]; Row 1 (time), 3mg/kg b.i.d.): 0 | Transform of Nasal Lavage RNA copies, Mean 2 (treated group) ([6]; Row 1 (time), 10mg/kg b.i.d.): 0 | Transform of Nasal Lavage RNA copies, Mean Diff. (Vehicle vs. treated) ([6]; Row 1 (time), 10mg/kg b.i.d.): 0 | Transform of Nasal Lavage RNA copies, Mean 2 (treated group) ([6]; Row 2 (time), 3mg/kg b.i.d.): 5.027 | Transform of Nasal Lavage RNA copies, Mean Diff. (Vehicle vs. treated) ([6]; Row 2 (time), 3mg/kg b.i.d.): 0.585 | Transform of Nasal Lavage RNA copies, Mean 2 (treated group) ([6]; Row 2 (time), 10mg/kg b.i.d.): 4.315 | Transform of Nasal Lavage RNA copies, Mean Diff. (Vehicle vs. treated) ([6]; Row 2 (time), 10mg/kg b.i.d.): 1.297 | Transform of Nasal Lavage RNA copies, Mean 2 (treated group) ([6]; Row 3 (time), 3mg/kg b.i.d.): 5.927 | Transform of Nasal Lavage RNA copies, Mean Diff. (Vehicle vs. treated) ([6]; Row 3 (time), 3mg/kg b.i.d.): 0.2134 | Transform of Nasal Lavage RNA copies, Mean 2 (treated group) ([6]; Row 3 (time), 10mg/kg b.i.d.): 4.129 | Transform of Nasal Lavage RNA copies, Mean Diff. (Vehicle vs. treated) ([6]; Row 3 (time), 10mg/kg b.i.d.): 2.012 | Transform of Nasal Lavage RNA copies, Mean 2 (treated group) ([6]; Row 4 (time), 3mg/kg b.i.d.): 5.77 | Transform of Nasal Lavage RNA copies, Mean Diff. (Vehicle vs. treated) ([6]; Row 4 (time), 3mg/kg b.i.d.): -0.1446 | Transform of Nasal Lavage RNA copies, Mean 2 (treated group) ([6]; Row 4 (time), 10mg/kg b.i.d.): 3.777 | Transform of Nasal Lavage RNA copies, Mean Diff. (Vehicle vs. treated) ([6]; Row 4 (time), 10mg/kg b.i.d.): 1.849 | Transform of Nasal Lavage RNA copies, Mean 2 (treated group) ([6]; Row 5 (time), 3mg/kg b.i.d.): 5.662 | Transform of Nasal Lavage RNA copies, Mean Diff. (Vehicle vs. treated) ([6]; Row 5 (time), 3mg/kg b.i.d.): 0.07178 | Transform of Nasal Lavage RNA copies, Mean 2 (treated group) ([6]; Row 5 (time), 10mg/kg b.i.d.): 3.751 | Transform of Nasal Lavage RNA copies, Mean Diff. (Vehicle vs. treated) ([6]; Row 5 (time), 10mg/kg b.i.d.): 1.983 | reduction of virus burden in the turbinates ([6]; in vivo): one order of magnitude | viral RNA copies in nasal lavages and turbinates vs vehicle ([6]; in vivo): statistically significant mean reduction | virus burden in the turbinates ([6]; in vivo): approached the limit of detection | virus load in nasal lavages vs vehicle ([6]; in vivo): approximately one order of magnitude lower | virus shedding in nasal lavages ([6]; in vivo): near-detection level | CC50 at 72 h [7]: 39.7 µM | viability at 72 h, 1.235 µM ([8]; VeroE6, 1.235 µM): 87% | viability at 72 h, 3.704 µM ([8]; VeroE6, 3.704 µM): 87% | viability at 72 h, 33.333 µM ([8]; VeroE6, 33.333 µM): 101% | % cell viability ([9]; 0.046 µM): 88% and 92% | % cell viability ([9]; 1.235 µM): 112% | % cell viability ([9]; 3.704 µM): 115% | % cell viability ([9]; 33.333 µM): 86% and 83% | CC50 ([9]; “M2” HAE): 39.7 µM | % cell viability ([10]; BHK-21, 0.046 µM, 0.046 µM): 79% | % cell viability ([10]; BHK-21, 1.235 µM, 1.235 µM): 92% | % cell viability ([10]; BHK-21, 3.704 µM, 3.704 µM): 96% and 93% | % cell viability ([10]; BHK-21, 33.333 µM, 33.333 µM): 95% | % cell viability ([10]; BHK-21, 100 µM, 100 µM): 84% | % cell viability ([11]; DF2 HAE, 1.235 µM): 106% | % cell viability ([11]; DF2 HAE, 3.704 µM): 113% | % cell viability ([11]; DF2 HAE, 33.333 µM): 114% | % cell viability ([11]; human, 100 µM): 5% | GS-443902 levels in respiratory tissues trailing those of intravenous 10 mg/kg remdesivir [12]: approximately fourfold | viability at 72 h, 1.235 µM ([4]; female, % cell viability, F2 HAE, 1.235 µM): 100% | viability at 72 h, 3.704 µM ([4]; female, % cell viability, F2 HAE, 3.704 µM): 117% | viability at 72 h, 33.333 µM ([4]; female, % cell viability, F2 HAE, 33.333 µM): 82% | viability at 72 h, 0.046 µM [4, 13]: 86% | viability at 72 h, 100 µM ([4]; % cell viability, F2 HAE): 1% | CC50 at 72 h [4]: 43.8 µM
